As usually defined, the Ki is the equilibrium dissociation constant of an inhibitor or competing ligand from its target. By EC50 is commonly meant the concentration at which the effect is half-maximal.

The results in this text go back to patent US12252524B2, “GIP/GLP1 co-agonist compounds” (Eli Lilly and Company, priority 2018, dated 2025).

Numbered stars: 1 amine (or outer) side, 2 acyl side, 3 side chain; on linkers, the order of the positions; unused ones are H or OH. Square brackets hold non-standard residues; d marks the D form. Side chains are listed from the residue outwards. Peptide text beside a SMILES is read from it. * marks the point of attachment. C20 diacid = O=C(O)CCCCCCCCCCCCCCCCCCC(=O)*; C18 diacid = O=C(O)CCCCCCCCCCCCCCCCC(=O)*; γGlu = O=C(O)[C@H](CCC(=O)[*:2])N[*:1]; αMeL = CC(C)C[C@](C)(N)C(=O)O; AEEA = NCCOCCOCC(=O)O; Aib = CC(C)(N)C(=O)O

In assay [1] the target is T1, human Gcg receptor (Homo sapiens, UniProt P47871).
T1 construct: expressed in transfected cells; crude membranes
T1 sequence (P47871 26-477): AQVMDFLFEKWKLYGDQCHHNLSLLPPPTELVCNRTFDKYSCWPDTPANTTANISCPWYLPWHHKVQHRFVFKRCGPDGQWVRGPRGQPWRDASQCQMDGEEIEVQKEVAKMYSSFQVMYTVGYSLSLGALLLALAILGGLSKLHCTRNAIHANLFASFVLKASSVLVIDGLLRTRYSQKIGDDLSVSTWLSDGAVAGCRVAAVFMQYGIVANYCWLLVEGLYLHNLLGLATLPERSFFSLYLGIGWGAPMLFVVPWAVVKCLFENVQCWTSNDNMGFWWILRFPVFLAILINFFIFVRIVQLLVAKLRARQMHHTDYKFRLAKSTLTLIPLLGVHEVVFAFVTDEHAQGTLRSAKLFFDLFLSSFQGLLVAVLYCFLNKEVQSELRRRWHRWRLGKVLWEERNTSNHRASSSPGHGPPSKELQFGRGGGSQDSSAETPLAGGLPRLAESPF
Put plainly: [125I]-Glucagon binding (SPA), human Gcg receptor. Conditions: read-out: hGLcgR Ki, nM (SEM, n). In short, it runs like this: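 Scintillation counts are taken after membranes and WGA beads incubate and settle for 12 hours at room temperature. Buffer is 25 mM HEPES, pH 7.4, with CaCl2, MgCl2, bacitracin and Tween-20. Ki values, from four-parameter IC50 fits, are geometric means over independent days.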

Assay [2] addresses T2, human GIP receptor (Homo sapiens, UniProt P48546).
T2 construct: expressed in transfected cells; crude membranes
T2 sequence (P48546 22-466): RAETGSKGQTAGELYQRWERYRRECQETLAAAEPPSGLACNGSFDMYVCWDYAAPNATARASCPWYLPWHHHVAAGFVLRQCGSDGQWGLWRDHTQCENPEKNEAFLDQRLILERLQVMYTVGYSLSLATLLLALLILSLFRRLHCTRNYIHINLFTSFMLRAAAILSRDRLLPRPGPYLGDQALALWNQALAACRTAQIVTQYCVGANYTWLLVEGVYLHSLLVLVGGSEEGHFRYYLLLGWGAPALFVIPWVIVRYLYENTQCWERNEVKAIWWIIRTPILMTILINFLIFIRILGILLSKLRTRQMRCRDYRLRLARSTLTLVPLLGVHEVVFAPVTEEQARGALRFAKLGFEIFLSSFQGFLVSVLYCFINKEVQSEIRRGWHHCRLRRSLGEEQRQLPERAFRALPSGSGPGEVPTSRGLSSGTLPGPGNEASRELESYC
Briefly: [125I]-GIP binding (SPA), human GIP receptor. The note with it: read-out: hGIPR Ki, nM (SEM, n).

The target in assay [3] is human GLP-1 receptor (GLP-1R) (Homo sapiens, UniProt P43220). Put plainly: cAMP pharmacological functional assay in presence of casein, hGLP-1R. Conditions: HEK293 cells expressing hGLP-1R, 0.1% Casein, geometric mean; read-out: hGLP1R cAMP Rel EC50 nM (SEM, n). The format is cell-based.
Sequence of human GLP-1 receptor (GLP-1R) (P43220 24-463): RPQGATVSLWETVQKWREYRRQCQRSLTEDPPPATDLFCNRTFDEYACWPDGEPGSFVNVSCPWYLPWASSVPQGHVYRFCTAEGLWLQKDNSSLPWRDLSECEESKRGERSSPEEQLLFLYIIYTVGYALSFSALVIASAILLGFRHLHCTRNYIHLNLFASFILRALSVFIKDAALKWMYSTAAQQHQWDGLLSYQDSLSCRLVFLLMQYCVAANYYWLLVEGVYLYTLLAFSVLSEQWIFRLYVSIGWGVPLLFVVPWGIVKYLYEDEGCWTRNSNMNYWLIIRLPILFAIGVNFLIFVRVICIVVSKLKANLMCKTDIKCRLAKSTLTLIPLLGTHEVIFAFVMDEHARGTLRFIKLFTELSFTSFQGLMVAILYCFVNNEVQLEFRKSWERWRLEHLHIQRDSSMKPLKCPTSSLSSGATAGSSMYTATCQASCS
Assay [4] has as its target T3, gastric inhibitory peptide receptor (GIPR) (Homo sapiens, UniProt P48546).
T3 sequence (P48546 22-466): T2 sequence (P48546 22-466)
Briefly: cAMP pharmacological functional assay in presence of casein, hGIPR. The format is cell-based. Conditions: HEK293 cells expressing hGIPR, 0.1% Casein, geometric mean; read-out: hGIPR cAMP Rel EC50 nM (SEM, n).

For assay [5], the target named is T4, human GLP-1R (Homo sapiens, UniProt P43220). Put plainly: [125I]-GLP-1 binding (SPA), human GLP-1 receptor. On the set-up: expressed in transfected cells; crude membranes. Conditions: read-out: hGLP1R Ki, (nM) (SEM, n). Summed up: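 Frozen cell pellets are lysed on ice in hypotonic Tris buffer, pH 7.5, homogenized, and centrifuged to a membrane pellet resuspended at about 1 to 3 mg/mL. Binding is then measured in HEPES-based buffer at pH 7.4, and curves are fitted to give IC50 and Ki.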
T4 sequence (P43220 24-463): as above

Assay [6] concerns the target T4, human GLP-1R. Put plainly: GLP-1R HEK293 cell membrane [35S]GTPγS binding assay. The format is biochemical. The arrangement: expressed in transfected cells; host or cells: HEK293 cells expressing human GLP-1R; membranes. Conditions: HEK293 cell membranes expressing human GLP-1R, [35S]GTPγS binding; read-out: hGLP1R GTPgS Rel EC50 nM (SEM, n). The method, then:
The GLP-1 receptor is a G-protein coupled receptor that increases GTP-bound Gas upon ligand induced receptor activation. The potency of peptides to stimulate-GLP-1R induced activation of Gac is determined using preparations of purified membranes from HEK293 cells expressing the human GLP-1R. […] The test peptides are solubilized in DMSO and diluted in reaction buffer containing 5 μg of membrane in 20 mM HEPES pH 7.4, 50 mM NaCl, 5 mM MgCl2, 40 μg/ml saponin, 0.1% BSA, and […] ^35S-labeled GTPTS for 30 minutes at room temperature. Reactions are terminated by addition of 0.2% Nonidet β-40 detergent containing rabbit anti-Gas polyclonal antibody and 0.5 mg of anti-rabbit polyvinyltoluene beads. Mixtures are developed for 30 minutes, centrifuged at 80×g for 10 minutes, and counted for 1 minute/well using a MicroBeta TriLux instrument. Peptide concentration-response curves are fit to a four-parameter logistic model to calculate potency as an EC50.
(In general: GTPγS resists hydrolysis and so accumulates on activated G proteins.)

Turning to `CC[C@H](C)[C@H](NC(=O)[C@H](CC(C)C)NC(=O)[C@H](Cc1ccc(O)cc1)NC(=O)[C@H](CCC(=O)O)NC(=O)[C@@H](NC(=O)[C@H](Cc1ccccc1)NC(=O)[C@H](CCC(=O)O)NC(=O)C(C)(C)NC(=O)[C@H](CCC(N)=O)NC(=O)[C@H](C)NC(=O)[C@H](CCCCNC(=O)COCCOCCNC(=O)COCCOCCNC(=O)CC[C@H](NC(=O)CCCCCCCCCCCCCCCCC(=O)O)C(=O)O)NC(=O)[C@H](CCCCN)NC(=O)[C@H](CC(=O)O)NC(=O)[C@H](CC(C)C)NC(=O)[C@](C)(CC(C)C)NC(=O)[C@@H](NC(=O)[C@H](CO)NC(=O)[C@H](Cc1ccc(O)cc1)NC(=O)[C@H](CC(=O)O)NC(=O)[C@H](CO)NC(=O)[C@@H](NC(=O)[C@H](Cc1ccccc1)NC(=O)[C@@H](NC(=O)CNC(=O)[C@H](CCC(=O)O)NC(=O)C(C)(C)NC(=O)[C@@H](N)Cc1ccc(O)cc1)[C@@H](C)O)[C@@H](C)O)[C@@H](C)CC)[C@@H](C)CC)C(=O)N[C@@H](C)C(=O)NCC(=O)NCC(=O)N1CCC[C@H]1C(=O)N[C@@H](CO)C(=O)N[C@@H](CO)C(=O)NCC(N)=O` [Example 306] (H-Y[Aib]EGTFTSDYSI[αMeL]LDKK([AEEA-AEEA-γGlu-C18 diacid])AQ[Aib]EFIEYLIAGGPSSG-NH2), the values for the Ki in assay [1], in assay [2] and in assay [5] were over 1040 nM, 0.0349 nM and 2.86 nM, respectively. The figures for the EC50 in assay [3], in assay [4] and in assay [6] were 0.0711 nM, 0.0191 nM and 0.378 nM, respectively.
As to `CC[C@H](C)[C@H](NC(=O)[C@H](CC(C)C)NC(=O)[C@H](Cc1ccc(O)cc1)NC(=O)[C@H](CCC(=O)O)NC(=O)[C@@H](NC(=O)[C@H](Cc1ccccc1)NC(=O)[C@H](C)NC(=O)C(C)(C)NC(=O)[C@H](CCC(N)=O)NC(=O)[C@H](C)NC(=O)[C@H](CCCCNC(=O)COCCOCCNC(=O)COCCOCCNC(=O)CC[C@H](NC(=O)CCCCCCCCCCCCCCCCCCC(=O)O)C(=O)O)NC(=O)[C@H](CCCCN)NC(=O)[C@H](CC(=O)O)NC(=O)[C@H](CC(C)C)NC(=O)[C@H](CC(C)C)NC(=O)[C@@H](NC(=O)[C@H](CO)NC(=O)[C@H](Cc1ccc(O)cc1)NC(=O)[C@H](CC(=O)O)NC(=O)[C@H](CO)NC(=O)[C@@H](NC(=O)[C@H](Cc1ccccc1)NC(=O)[C@@H](NC(=O)CNC(=O)[C@H](CCC(=O)O)NC(=O)C(C)(C)NC(=O)[C@@H](N)Cc1ccc(O)cc1)[C@@H](C)O)[C@@H](C)O)[C@@H](C)CC)[C@@H](C)CC)C(=O)N[C@@H](C)C(=O)NCC(=O)NCC(=O)N1CCC[C@H]1C(=O)N[C@@H](CO)C(=O)N[C@@H](CO)C(=O)NCC(N)=O` [Example 317] (H-Y[Aib]EGTFTSDYSILLDKK([AEEA-AEEA-γGlu-C20 diacid])AQ[Aib]AFIEYLIAGGPSSG-NH2; N-terminus assumed), the Ki was 253 nM in assay [1], 0.0215 nM in assay [2] and 2.63 nM in assay [5]. For the same compound, the EC50 in assay [3] was 0.172 nM; in assay [4], 0.0948 nM; in assay [6] it was 0.536 nM.
With `CC[C@H](C)[C@H](NC(=O)[C@H](CC(C)C)NC(=O)[C@H](Cc1ccc(O)cc1)NC(=O)[C@H](CCC(=O)O)NC(=O)[C@@H](NC(=O)[C@H](Cc1ccccc1)NC(=O)[C@H](CCC(=O)O)NC(=O)C(C)(C)NC(=O)[C@H](CCC(N)=O)NC(=O)[C@H](C)NC(=O)[C@H](CCCCNC(=O)COCCOCCNC(=O)COCCOCCNC(=O)CC[C@H](NC(=O)CCCCCCCCCCCCCCCCCCC(=O)O)C(=O)O)NC(=O)[C@H](CCCCN)NC(=O)[C@H](CC(=O)O)NC(=O)[C@H](CC(C)C)NC(=O)[C@H](CC(C)C)NC(=O)[C@@H](NC(=O)[C@H](CO)NC(=O)[C@H](Cc1ccc(O)cc1)NC(=O)[C@H](CC(=O)O)NC(=O)[C@H](CO)NC(=O)[C@@H](NC(=O)[C@H](Cc1ccccc1)NC(=O)[C@@H](NC(=O)CNC(=O)[C@H](CCC(=O)O)NC(=O)C(C)(C)NC(=O)[C@@H](N)Cc1ccc(O)cc1)[C@@H](C)O)[C@@H](C)O)[C@@H](C)CC)[C@@H](C)CC)C(=O)N[C@@H](C)C(=O)NCC(=O)NCC(=O)N1CCC[C@H]1C(=O)N[C@@H](CO)C(=O)N[C@@H](CO)C(=O)NCC(N)=O` [Example 318] (H-Y[Aib]EGTFTSDYSILLDKK([AEEA-AEEA-γGlu-C20 diacid])AQ[Aib]EFIEYLIAGGPSSG-NH2; N-terminus assumed), the Ki in assay [1] amounted to 730 nM; in assay [2] it was 0.0452 nM; in assay [5], 7.52 nM. The EC50 in assay [3] turned out to be 0.124 nM; in assay [4], 0.0547 nM; in assay [6], 0.415 nM.
For `CC[C@H](C)[C@H](NC(=O)[C@H](CC(C)C)NC(=O)[C@H](Cc1ccc(O)cc1)NC(=O)[C@H](CCC(=O)O)NC(=O)[C@@H](NC(=O)[C@H](Cc1ccccc1)NC(=O)[C@H](CCC(=O)O)NC(=O)C(C)(C)NC(=O)[C@H](CCC(N)=O)NC(=O)[C@H](C)NC(=O)[C@H](CCCCNC(=O)COCCOCCNC(=O)COCCOCCNC(=O)CC[C@H](NC(=O)CCCCCCCCCCCCCCCCCCC(=O)O)C(=O)O)NC(=O)[C@H](CCCCN)NC(=O)[C@H](CC(=O)O)NC(=O)[C@H](CC(C)C)NC(=O)[C@H](CC(C)C)NC(=O)[C@@H](NC(=O)[C@H](CO)NC(=O)[C@H](Cc1ccc(O)cc1)NC(=O)[C@H](CC(=O)O)NC(=O)[C@H](CO)NC(=O)[C@@H](NC(=O)[C@H](Cc1ccccc1)NC(=O)[C@@H](NC(=O)CNC(=O)[C@H](CCC(=O)O)NC(=O)C(C)(C)NC(=O)[C@@H](N)Cc1ccc(O)cc1)[C@@H](C)O)[C@@H](C)O)[C@@H](C)CC)[C@@H](C)CC)C(=O)N[C@@H](C)C(=O)NCC(=O)NCC(=O)N1CCC[C@H]1C(=O)N[C@@H](CO)C(=O)N[C@@H](CO)C(=O)NCC(=O)N[C@@H](C)C(=O)N1CCC[C@H]1C(=O)N1CCC[C@H]1C(=O)N1CCC[C@H]1C(=O)N[C@@H](CO)C(N)=O` [Example 319] (H-Y[Aib]EGTFTSDYSILLDKK([AEEA-AEEA-γGlu-C20 diacid])AQ[Aib]EFIEYLIAGGPSSGAPPPS-NH2), the results for the inhibition constant Ki in assay [1], in assay [2] and in assay [5] were over 984 nM, 0.0349 nM and 3.61 nM, respectively. Also, the EC50 in assay [3] is 0.113 nM; in assay [4] it was 0.054 nM; in assay [6] it was 0.657 nM.
Take `CC[C@H](C)[C@H](NC(=O)[C@H](CC(C)C)NC(=O)[C@H](Cc1ccc(O)cc1)NC(=O)[C@H](CCC(=O)O)NC(=O)[C@@H](NC(=O)[C@H](Cc1ccccc1)NC(=O)[C@H](C)NC(=O)C(C)(C)NC(=O)[C@H](CCC(N)=O)NC(=O)[C@H](C)NC(=O)[C@H](CCCCNC(=O)COCCOCCNC(=O)COCCOCCNC(=O)CC[C@H](NC(=O)CCCCCCCCCCCCCCCCC(=O)O)C(=O)O)NC(=O)[C@H](CCC(=O)O)NC(=O)[C@H](CC(=O)O)NC(=O)[C@H](CC(C)C)NC(=O)[C@](C)(CC(C)C)NC(=O)[C@@H](NC(=O)[C@H](CO)NC(=O)[C@H](Cc1ccc(O)cc1)NC(=O)[C@H](CC(=O)O)NC(=O)[C@H](CO)NC(=O)[C@@H](NC(=O)[C@H](Cc1ccccc1)NC(=O)[C@@H](NC(=O)CNC(=O)[C@H](CCC(=O)O)NC(=O)C(C)(C)NC(=O)[C@@H](N)Cc1ccc(O)cc1)[C@@H](C)O)[C@@H](C)O)[C@@H](C)CC)[C@@H](C)CC)C(=O)N[C@@H](CCC(=O)O)C(=O)NCC(=O)NCC(=O)N1CCC[C@H]1C(=O)N[C@@H](CO)C(=O)N[C@@H](CO)C(=O)NCC(=O)N[C@@H](C)C(=O)N1CCC[C@H]1C(=O)N1CCC[C@H]1C(=O)N1CCC[C@H]1C(=O)N[C@@H](CO)C(N)=O` [Example 323] (H-Y[Aib]EGTFTSDYSI[αMeL]LDEK([AEEA-AEEA-γGlu-C18 diacid])AQ[Aib]AFIEYLIEGGPSSGAPPPS-NH2): the values for the Ki in assay [1], in assay [2] and in assay [5] were 300 nM, 0.0516 nM and 1.65 nM, respectively. For the same compound, the half-maximal effective concentration (EC50) in assay [3] was 0.0597 nM; in assay [4], 0.0251 nM; in assay [6] it was 0.79 nM.
